The source of these data is PMC8070173, “Phenelzine and Amoxapine Inhibit Tyramine and d-Glucuronic Acid Catabolism in Clinically Significant Salmonella in A Serotype-Independent Manner” (Pathogens, 2021).

This assay deals with T1, β-glucuronidase (GUS) (Escherichia coli, UniProt P05804).
T1 construct: gene uidA; purified GUS encoded by E. coli (G8420-25KU, Sigma-Aldrich)
The assay is described as follows: colorimetric PNPG hydrolysis (p-nitrophenol release) with purified enzyme; complete inhibition at […]. It is filed as biochemical.

T1 sequence (P05804 whole entry): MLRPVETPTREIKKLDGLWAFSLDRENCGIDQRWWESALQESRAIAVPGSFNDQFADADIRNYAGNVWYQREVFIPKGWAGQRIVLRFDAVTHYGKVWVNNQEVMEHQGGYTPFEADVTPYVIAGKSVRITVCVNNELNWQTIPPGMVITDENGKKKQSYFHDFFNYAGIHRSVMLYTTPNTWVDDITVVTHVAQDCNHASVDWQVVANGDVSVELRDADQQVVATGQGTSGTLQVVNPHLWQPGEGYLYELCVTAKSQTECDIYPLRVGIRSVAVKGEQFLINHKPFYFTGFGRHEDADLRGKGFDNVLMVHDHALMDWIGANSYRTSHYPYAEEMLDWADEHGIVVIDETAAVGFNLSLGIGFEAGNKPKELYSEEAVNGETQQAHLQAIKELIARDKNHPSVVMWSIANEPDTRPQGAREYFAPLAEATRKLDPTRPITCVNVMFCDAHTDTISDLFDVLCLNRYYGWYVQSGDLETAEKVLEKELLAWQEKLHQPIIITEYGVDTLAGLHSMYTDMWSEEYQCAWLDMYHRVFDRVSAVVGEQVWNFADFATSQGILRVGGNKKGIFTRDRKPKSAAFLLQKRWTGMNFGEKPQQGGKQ

On to `Clc1ccc2c(c1)C(N1CCNCC1)=Nc1ccccc1O2` [amoxapine], for which the “colorimetric PNPG hydrolysis (p-nitrophenol release) with purified enzyme; compl” value is 50 µM.
